The numbers were not newly measured in patent US20120195848A1, “STRONTIUM-CONTAINING BIOACTIVE BONE CEMENT” (The University of Hong Kong, priority 2011, published 2012), which cites them from elsewhere.

The structures appear in SMILES notation. Like-named read-outs stand apart in the source and are kept apart here.

In the case of `O=S(=O)([O-])[O-].[Ba+2]` [BaSO4, reference compound], the dissolution rate (20° C.) was 0.0002448 g/100 mL. In the case of `O=S(=O)([O-])[O-].[Sr+2]` [SrSO4, strontium sulfate], where the note is “25° C.”, the dissolution rate is listed as 0.0135 g/100 mL.

Take `O=C([O-])[O-].[Sr+2]` [SrCO3, strontium carbonate]: the dissolution rate (18° C.) is 0.0011 g/100 ml.
